The source of these data is ChEMBL document CHEMBL2331362, “Identification of N-acyl 4-(5-pyrimidine-2,4-dionyl)phenylalanine derivatives and their orally active prodrug esters as dual-acting alpha4-beta1 and alpha4-beta7 receptor antagonists” (Bioorg Med Chem Lett, 2013).

The structures appear in SMILES notation.

Data set [1] concerns the target T1, Integrin alpha-4/beta-1 (Homo sapiens, UniProt P05556+P13612). The data set is described as follows: Inhibition of human VCAM1 binding to integrin alpha4beta1 receptor in human Ramos cells labeled with Calcein AM relative to (S)-2-(2-chloro-6-methylbenzamido)-3-(4-(2,6-dichlorobenzamido)phenyl)propanoic acid. Format: cell-based.
The target in data set [2] is T1, Integrin alpha-4/beta-1. The data set is described as follows: Inhibition of human VCAM1 binding to integrin alpha4beta1 receptor in human Ramos cells labeled with Calcein AM. Format: cell-based.
Data set [3] deals with T2, Integrin alpha-4/beta-7 (Homo sapiens, UniProt P13612+P26010).
T2 sequence (P13612 whole entry): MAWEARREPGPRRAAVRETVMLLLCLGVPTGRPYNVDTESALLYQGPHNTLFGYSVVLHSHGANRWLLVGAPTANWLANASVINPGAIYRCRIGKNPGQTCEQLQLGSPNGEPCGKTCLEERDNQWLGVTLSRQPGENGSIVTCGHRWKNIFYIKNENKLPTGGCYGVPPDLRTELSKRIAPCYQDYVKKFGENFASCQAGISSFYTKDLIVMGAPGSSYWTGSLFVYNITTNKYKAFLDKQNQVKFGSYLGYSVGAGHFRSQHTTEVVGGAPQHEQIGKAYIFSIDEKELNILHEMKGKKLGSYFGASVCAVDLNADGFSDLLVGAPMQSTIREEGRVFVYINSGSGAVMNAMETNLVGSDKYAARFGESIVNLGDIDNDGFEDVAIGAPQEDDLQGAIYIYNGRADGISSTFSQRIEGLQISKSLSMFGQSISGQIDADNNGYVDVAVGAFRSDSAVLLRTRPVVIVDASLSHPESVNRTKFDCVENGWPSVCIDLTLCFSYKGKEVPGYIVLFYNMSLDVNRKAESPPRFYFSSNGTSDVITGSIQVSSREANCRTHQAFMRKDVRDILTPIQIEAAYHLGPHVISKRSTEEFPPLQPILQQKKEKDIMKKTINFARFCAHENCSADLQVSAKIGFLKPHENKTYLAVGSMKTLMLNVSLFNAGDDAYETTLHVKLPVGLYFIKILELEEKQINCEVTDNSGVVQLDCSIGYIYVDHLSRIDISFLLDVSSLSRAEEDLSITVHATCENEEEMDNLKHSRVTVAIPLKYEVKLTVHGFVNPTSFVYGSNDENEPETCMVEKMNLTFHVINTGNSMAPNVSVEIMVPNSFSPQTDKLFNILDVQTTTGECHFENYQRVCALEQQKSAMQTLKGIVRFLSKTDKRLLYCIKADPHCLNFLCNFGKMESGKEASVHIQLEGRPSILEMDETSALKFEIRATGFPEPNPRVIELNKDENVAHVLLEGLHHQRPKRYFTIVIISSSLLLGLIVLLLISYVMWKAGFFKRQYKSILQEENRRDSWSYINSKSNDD
T2 sequence (P26010 whole entry): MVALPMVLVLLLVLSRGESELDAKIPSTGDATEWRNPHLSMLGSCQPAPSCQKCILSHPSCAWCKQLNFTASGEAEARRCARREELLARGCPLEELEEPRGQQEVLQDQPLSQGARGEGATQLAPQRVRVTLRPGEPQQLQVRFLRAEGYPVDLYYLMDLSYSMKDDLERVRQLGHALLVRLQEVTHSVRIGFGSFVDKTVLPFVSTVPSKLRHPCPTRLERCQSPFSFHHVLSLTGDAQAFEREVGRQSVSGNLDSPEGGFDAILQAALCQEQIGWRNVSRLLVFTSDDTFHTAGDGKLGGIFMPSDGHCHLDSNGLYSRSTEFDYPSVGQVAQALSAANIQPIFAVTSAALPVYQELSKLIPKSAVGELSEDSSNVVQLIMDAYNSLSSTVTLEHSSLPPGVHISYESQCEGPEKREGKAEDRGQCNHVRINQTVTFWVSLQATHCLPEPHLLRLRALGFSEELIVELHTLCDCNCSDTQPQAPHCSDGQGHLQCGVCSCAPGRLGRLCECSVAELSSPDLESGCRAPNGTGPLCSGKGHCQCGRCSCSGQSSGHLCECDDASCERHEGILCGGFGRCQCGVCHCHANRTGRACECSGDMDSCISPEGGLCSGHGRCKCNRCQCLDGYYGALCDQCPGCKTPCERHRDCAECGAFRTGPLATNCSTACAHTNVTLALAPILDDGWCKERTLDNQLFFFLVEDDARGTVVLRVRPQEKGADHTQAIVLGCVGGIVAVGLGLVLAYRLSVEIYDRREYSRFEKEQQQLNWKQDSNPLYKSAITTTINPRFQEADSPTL
In words: Inhibition of human MAdCAM1 binding to integrin alpha4beta7 receptor in human RPMI 8866 cells labeled with Calcein AM. Format: cell-based.

Data set [4] concerns the target Integrin alpha-4/beta-7 (Homo sapiens) (UniProt P13612+P26010). The data set is described as follows: Inhibition of human MAdCAM1 binding to integrin alpha4beta7 receptor in human RPMI 8866 cells labeled with Calcein AM relative to (S)-2-(2-chloro-6-methylbenzamido)-3-(4-(2,6-dichlorobenzamido)phenyl)propanoic acid. The class given is cell-based.
A short description of data set [5]: Distribution coefficient, log D of the compound. The class given is physicochemical. The note with it: octanol/water.
A short description of data set [6]: Oral bioavailability in rat. The class given is ADME, organism-based. The note with it: in vivo.
The nature of data set [7]: Apparent permeability across human Caco2 cells. Format: ADME, cell-based. The note with it: Caco-2.

T1 sequence (P05556 whole entry, one chain of several): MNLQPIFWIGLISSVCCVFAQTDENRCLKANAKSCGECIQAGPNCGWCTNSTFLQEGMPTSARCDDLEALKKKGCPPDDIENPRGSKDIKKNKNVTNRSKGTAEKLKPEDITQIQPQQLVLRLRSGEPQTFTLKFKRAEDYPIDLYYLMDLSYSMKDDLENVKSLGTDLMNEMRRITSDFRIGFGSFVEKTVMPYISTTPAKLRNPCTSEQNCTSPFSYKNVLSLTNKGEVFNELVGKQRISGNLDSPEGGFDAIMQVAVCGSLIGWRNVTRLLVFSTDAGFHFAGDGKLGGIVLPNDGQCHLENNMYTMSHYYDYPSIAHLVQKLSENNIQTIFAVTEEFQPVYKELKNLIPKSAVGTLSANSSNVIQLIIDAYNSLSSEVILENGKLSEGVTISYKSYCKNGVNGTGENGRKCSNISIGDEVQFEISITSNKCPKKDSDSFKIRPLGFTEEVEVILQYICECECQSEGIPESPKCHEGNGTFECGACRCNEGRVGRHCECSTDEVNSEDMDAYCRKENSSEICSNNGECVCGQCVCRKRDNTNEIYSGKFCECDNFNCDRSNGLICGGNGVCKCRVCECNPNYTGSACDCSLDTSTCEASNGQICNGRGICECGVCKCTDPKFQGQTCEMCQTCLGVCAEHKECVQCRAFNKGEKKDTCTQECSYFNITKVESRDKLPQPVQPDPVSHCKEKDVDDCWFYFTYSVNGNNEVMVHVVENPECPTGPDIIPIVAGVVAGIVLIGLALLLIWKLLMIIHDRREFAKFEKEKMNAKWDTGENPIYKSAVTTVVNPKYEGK

As to `Cc1cc(C[C@H](NC(=O)c2c(C)cccc2Cl)C(=O)O)ccc1-c1cn(C)c(=O)n(C)c1=O`, the Ratio IC50 in data set [1] was 1. In addition, the IC50 in data set [2] was 81 nM.

Regarding `COCCC1(C(=O)N[C@@H](Cc2ccc(-c3c(C)n(C)c(=O)n(C)c3=O)cc2)C(=O)O)CCCC1`, the Ratio IC50 was 0.49 in data set [1] and 1 in data set [4]. The IC50 in data set [2] is 287 nM; in data set [3], 324 nM.

As to `Cc1cc(C[C@H](NC(=O)c2c(C)cccc2Br)C(=O)O)ccc1-c1cn(C)c(=O)n(C)c1=O`, in data set [1], the Ratio IC50 was 2. The IC50 in data set [2] was 25 nM.

Take `CCOC(=O)[C@H](Cc1ccc(-c2c(C)n(C)c(=O)n(C)c2=O)cc1)NC(=O)c1c(C)cccc1Cl`: the logD in data set [5] was determined as 2.24. The bioavailability in data set [6] came to 25%. Moreover, the Papp in data set [7] worked out at 34.7 ×10⁻⁶ cm/s.

Take `CCn1c(C)c(-c2ccc(C[C@H](NC(=O)c3c(C)cccc3Cl)C(=O)O)cc2)c(=O)n(CC)c1=O`: the Ratio IC50 in data set [1] was 0.37; in data set [4] it was 1.7. Moreover, the IC50 is 296 nM in data set [2] and 164 nM in data set [3].

Take `Cc1c(-c2ccc(C[C@H](NC(=O)c3c(Cl)cccc3C(C)C)C(=O)O)cc2)c(=O)n(C)c(=O)n1C`: the Ratio IC50 in data set [1] is 0.13; in data set [4], 1. Further, the IC50 is 215 nM in data set [2] and 558 nM in data set [3].

Turning to `CCn1c(C)c(-c2ccc(C[C@H](NC(=O)c3c(Cl)cccc3Cl)C(=O)O)cc2)c(=O)n(CC)c1=O`, the Ratio IC50 in data set [1] was 0.8; in data set [4] it was 4.8. In addition, the values for the IC50 in data set [2] and in data set [3] were 63 nM and 124 nM, respectively.

`CC(=O)OC(C)OC(=O)[C@H](Cc1ccc(-c2c(C)n(C)c(=O)n(C)c2=O)cc1)NC(=O)c1c(F)cccc1F` (some centres undefined) gave a logD in data set [5] of 1.61. This compound gave a bioavailability in data set [6] of 30%. The Papp in data set [7] was 12 ×10⁻⁶ cm/s.

As for `COCCC1(C(=O)N[C@@H](Cc2ccc(-c3cn(C)c(=O)n(C)c3=O)c(C)c2)C(=O)O)CCCC1`, in data set [1], the Ratio IC50 was 0.8. In addition, the IC50 in data set [2] is 64 nM.

For the compound `Cc1c(-c2ccc(C[C@H](NC(=O)c3c(C(C)C)cccc3C(C)C)C(=O)O)cc2)c(=O)n(C)c(=O)n1C`, the Ratio IC50 in data set [1] is 0.04; in data set [4], 0.15. Moreover, the IC50 in data set [2] is 1450 nM; in data set [3], 1970 nM.

On to `CCn1c(C)c(-c2ccc(C[C@H](NC(=O)C3(CCOC)CCCC3)C(=O)O)cc2)c(=O)n(CC)c1=O`, for which the Ratio IC50 was 0.29 in data set [1] and 0.46 in data set [4]. The IC50 is 382 nM in data set [2] and 565 nM in data set [3].

In data set [5], `CCOC(=O)[C@H](Cc1ccc(-c2c(C)n(C)c(=O)n(C)c2=O)cc1)NC(=O)c1c(Cl)cccc1Cl` displayed a logD of 2.01. This compound came in with a bioavailability in data set [6] of 6%. In addition, the Papp in data set [7] was determined as 18.3 ×10⁻⁶ cm/s.

Consider `COc1cccc(Br)c1C(=O)N[C@@H](Cc1ccc(-c2cn(C)c(=O)n(C)c2=O)c(C)c1)C(=O)O`, for which the Ratio IC50 in data set [1] was 0.35. Also, the half-maximal inhibitory concentration (IC50) in data set [2] is 255 nM.

Regarding `Cc1c(-c2ccc(C[C@H](NC(=O)c3c(Cl)cccc3Cl)C(=O)O)cc2)c(=O)n(C)c(=O)n1C`, the figures for the Ratio IC50 in data set [1] and in data set [4] were 6.3 and 16, respectively. Besides, in data set [5], the logD was -2.02. Also, the IC50 in data set [2] was 8 nM; in data set [3], 35 nM. Moreover, the bioavailability in data set [6] came to 1.7%. Also, the apparent permeability (Papp) in data set [7] stood at 1.33 ×10⁻⁶ cm/s.

With `Cn1c(C(F)(F)F)c(-c2ccc(C[C@H](NC(=O)c3c(Cl)cccc3Cl)C(=O)O)cc2)c(=O)n(C)c1=O`, the Ratio IC50 in data set [1] is 0.46; in data set [4], 1.3. For the same compound, the IC50 in data set [2] is 196 nM; in data set [3], 219 nM.

`Cc1cc(C[C@H](NC(=O)c2c(Cl)cccc2Cl)C(=O)O)ccc1-c1cn(C)c(=O)n(C)c1=O`: the Ratio IC50 in data set [1] is 0.68; in data set [4] it was 1.9. The values for the IC50 in data set [2] and in data set [3] were 56 nM and 220 nM, respectively.

As to `CCc1cccc(Cl)c1C(=O)N[C@@H](Cc1ccc(-c2c(C)n(C)c(=O)n(C)c2=O)cc1)C(=O)O`, the Ratio IC50 in data set [1] is 0.53; in data set [4], 2.3. Also, the IC50 in data set [2] is 87 nM; in data set [3], 151 nM.

With `Cc1cccc(Cl)c1C(=O)N[C@@H](Cc1ccc(-c2c(C)n(C)c(=O)n(C)c2=O)cc1)C(=O)O`, the Ratio IC50 was 2.1 in data set [1] and 6.1 in data set [4]. The pH-dependent lipophilicity (logD) in data set [5] was -1.76. Also, the results for the half-maximal inhibitory concentration (IC50) in data set [2] and in data set [3] were 35 nM and 58 nM, respectively. In data set [6], this compound returned a bioavailability of 10%. Further, in data set [7], the Papp is 2.9 ×10⁻⁶ cm/s.

As to `Cc1cc(C[C@H](NC(=O)c2c(Cl)cccc2Cl)C(=O)O)ccc1-c1c(C)n(C)c(=O)n(C)c1=O`, the Ratio IC50 in data set [1] was 1.1; in data set [4] it was 3.6. For the same compound, the half-inhibitory concentration (IC50) is 10 nM in data set [2] and 168 nM in data set [3].

For `Cc1cc(C[C@H](NC(=O)c2c(C)cccc2Cl)C(=O)O)ccc1-c1c(C)n(C)c(=O)n(C)c1=O`, the figures for the Ratio IC50 in data set [1] and in data set [4] were 0.14 and 1, respectively. In addition, the values for the IC50 in data set [2] and in data set [3] were 246 nM and 254 nM, respectively.

For the compound `Cc1cccc(Cl)c1C(=O)N[C@@H](Cc1ccc(-c2c(C(F)(F)F)n(C)c(=O)n(C)c2=O)cc1)C(=O)O`, the figures for the Ratio IC50 in data set [1] and in data set [4] were 0.1 and 2.4, respectively. The IC50 is 123 nM in data set [2] and 167 nM in data set [3].
